Laboratory results published in ChEMBL document CHEMBL1201862, “PubChem BioAssay data set” (2004).
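Each compound was tested at five concentrations against cells in 96-well plates for 48 hours. Here, GI50 denotes the concentration required for 50% inhibition of growth.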 The source made the active and inactive calls. No stated cut-off is given here; in the data, active = GI50 up to about 1.1 µM and inactive = higher.

Experiments:
Assay in all cases: growth of human tumour cells (NCI), 48 h
A498 = test system: A498
A549 = test system: A549
HCT-116 = test system: HCT-116
KM12 = test system: KM12
LOX IMVI = test system: LOX IMVI
Malme-3M = test system: Malme-3M
NCI-H522 = test system: NCI-H522
OVCAR-5 = test system: OVCAR-5
SF-539 = test system: SF-539
SK-MEL-28 = test system: SK-MEL-28
SK-MEL-2 = test system: SK-MEL-2
SK-OV-3 = test system: SK-OV-3
SNB-78 = test system: SNB-78
TK-10 = test system: TK-10
U-251 = test system: U-251
UACC-257 = test system: UACC-257
HCC 2998 = test system: HCC 2998
MCF7 = test system: MCF7
MDA-MB-231 = test system: MDA-MB-231
RPMI-8226 = test system: RPMI-8226

Structure (SMILES)	GI50 (A498)	GI50 (A549)	GI50 (HCT-116)	GI50 (KM12)	GI50 (LOX IMVI)	GI50 (Malme-3M)	GI50 (NCI-H522)	GI50 (OVCAR-5)	GI50 (SF-539)	GI50 (SK-MEL-28)	GI50 (SK-MEL-2)	GI50 (SK-OV-3)	GI50 (SNB-78)	GI50 (TK-10)	GI50 (U-251)	GI50 (UACC-257)	GI50 (HCC 2998)	GI50 (MCF7)	GI50 (MDA-MB-231)	GI50 (RPMI-8226)
COc1ccc(OC)c(/C=N/N=C(\N)NO)c1	> 10 µM (inactive)	8.22 µM (inactive)	24.5 µM (inactive)	22.4 µM (inactive)	2.84 µM (inactive)	36.8 µM (inactive)	14.3 µM (inactive)	27.4 µM (inactive)	7.62 µM (inactive)	75.7 µM (inactive)	42.3 µM (inactive)	30.7 µM (inactive)	82.6 µM (inactive)	19.4 µM (inactive)	34.4 µM (inactive)	30.5 µM (inactive)	–	–	–	–
O=C(O)C/C(=C\c1ccccc1)C(=O)O	> 100 µM (inactive)	> 100 µM (inactive)	> 100 µM (inactive)	> 100 µM (inactive)	> 100 µM (inactive)	> 100 µM (inactive)	> 100 µM (inactive)	> 100 µM (inactive)	> 100 µM (inactive)	> 100 µM (inactive)	> 100 µM (inactive)	> 100 µM (inactive)	–	> 100 µM (inactive)	> 100 µM (inactive)	> 100 µM (inactive)	> 100 µM (inactive)	> 100 µM (inactive)	> 100 µM (inactive)	> 100 µM (inactive)
OC1(C(Sc2ccccc2)Sc2ccccc2)CCCCCC1	34 µM (inactive)	28 µM (inactive)	27.8 µM (inactive)	34.9 µM (inactive)	19.3 µM (inactive)	–	11.5 µM (inactive)	–	21.9 µM (inactive)	56.1 µM (inactive)	18.1 µM (inactive)	22.5 µM (inactive)	74.1 µM (inactive)	58.2 µM (inactive)	21.8 µM (inactive)	26.9 µM (inactive)	–	–	–	21.5 µM (inactive)
C[C@]12CC/C(=N\OCCN3CCCCC3)C=C1CCC1C2CC[C@@]2(C)C1CC[C@]2(C)O (some centres undefined)	3.14 µM (inactive)	12.2 µM (inactive)	7.38 µM (inactive)	10.4 µM (inactive)	4.11 µM (inactive)	11.2 µM (inactive)	2.24 µM (inactive)	19.6 µM (inactive)	7.35 µM (inactive)	11.2 µM (inactive)	13.1 µM (inactive)	16.7 µM (inactive)	–	12.4 µM (inactive)	10.7 µM (inactive)	5.57 µM (inactive)	9.27 µM (inactive)	4.75 µM (inactive)	11.7 µM (inactive)	12.7 µM (inactive)
Cc1ccc([N+](=O)[O-])c2c(NCCC[N+](C)(C)[O-])c3ccccc3nc12	1.89 µM (inactive)	1.53 µM (inactive)	1.52 µM (inactive)	1.79 µM (inactive)	2.04 µM (inactive)	1.22 µM (inactive)	0.204 µM (active)	3.41 µM (inactive)	2.6 µM (inactive)	3.68 µM (inactive)	0.773 µM (active)	3.86 µM (inactive)	–	11.6 µM (inactive)	1.32 µM (inactive)	2.41 µM (inactive)	0.841 µM (active)	0.401 µM (active)	1.86 µM (inactive)	2.74 µM (inactive)
COc1ccc([C@H]2C=C(c3cc(F)c(Cl)cc3Cl)N=c3s/c(=C\c4ccc(-c5ccc(Cl)cc5Cl)o4)c(=O)n32)cc1	2.48 µM (inactive)	> 100 µM (inactive)	35.1 µM (inactive)	60.1 µM (inactive)	38 µM (inactive)	99.1 µM (inactive)	52.2 µM (inactive)	39.4 µM (inactive)	34.6 µM (inactive)	> 100 µM (inactive)	20.1 µM (inactive)	21.5 µM (inactive)	–	12.1 µM (inactive)	34.8 µM (inactive)	30 µM (inactive)	20.1 µM (inactive)	26.9 µM (inactive)	25.5 µM (inactive)	32.5 µM (inactive)
CS(=O)(=O)OC1CCN(C2(c3cccc(O)c3)CCCCC2)CC1	> 100 µM (inactive)	> 100 µM (inactive)	31.8 µM (inactive)	> 100 µM (inactive)	21.8 µM (inactive)	> 100 µM (inactive)	> 100 µM (inactive)	> 100 µM (inactive)	27.4 µM (inactive)	60.4 µM (inactive)	> 100 µM (inactive)	37 µM (inactive)	–	> 100 µM (inactive)	64.7 µM (inactive)	38.4 µM (inactive)	20.6 µM (inactive)	31.8 µM (inactive)	73.5 µM (inactive)	20.7 µM (inactive)
CC(Oc1ccc(OCC2CCCCC2)cc1)C(=O)O (centres undefined)	–	> 100 µM (inactive)	> 100 µM (inactive)	> 100 µM (inactive)	> 100 µM (inactive)	> 100 µM (inactive)	> 100 µM (inactive)	–	> 100 µM (inactive)	> 100 µM (inactive)	> 100 µM (inactive)	> 100 µM (inactive)	> 100 µM (inactive)	> 100 µM (inactive)	> 100 µM (inactive)	> 100 µM (inactive)	–	–	–	–
CCc1cccc(C(C)C)c1NC(=O)CCl	–	> 100 µM (inactive)	> 100 µM (inactive)	> 100 µM (inactive)	80.7 µM (inactive)	> 100 µM (inactive)	35.6 µM (inactive)	–	> 100 µM (inactive)	> 100 µM (inactive)	> 100 µM (inactive)	> 100 µM (inactive)	> 100 µM (inactive)	> 100 µM (inactive)	85.1 µM (inactive)	> 100 µM (inactive)	–	–	–	> 100 µM (inactive)
C#C[C@]1(O)CC[C@H]2[C@@H]3CCC4=C/C(=N\OCCN5CCCC5)CC[C@]4(C)[C@H]3CC[C@@]21C	18.7 µM (inactive)	15.7 µM (inactive)	8.36 µM (inactive)	5.36 µM (inactive)	11.5 µM (inactive)	10.8 µM (inactive)	3.57 µM (inactive)	19.2 µM (inactive)	7.46 µM (inactive)	14.9 µM (inactive)	9.18 µM (inactive)	19.5 µM (inactive)	–	17.1 µM (inactive)	17.3 µM (inactive)	8.13 µM (inactive)	16.6 µM (inactive)	4.72 µM (inactive)	19.2 µM (inactive)	3.34 µM (inactive)
OCc1ccn2c1[C@@H](O)CC2	> 100 µM (inactive)	> 100 µM (inactive)	> 100 µM (inactive)	> 100 µM (inactive)	> 100 µM (inactive)	> 100 µM (inactive)	1.55 µM (inactive)	> 100 µM (inactive)	> 100 µM (inactive)	> 100 µM (inactive)	> 100 µM (inactive)	> 100 µM (inactive)	–	> 100 µM (inactive)	> 100 µM (inactive)	> 100 µM (inactive)	> 100 µM (inactive)	> 100 µM (inactive)	> 100 µM (inactive)	> 100 µM (inactive)
CCOC(=O)C1=CN2C(=N[C@H]3CCCC[C@@H]32)NC1=O	> 100 µM (inactive)	> 100 µM (inactive)	> 100 µM (inactive)	> 100 µM (inactive)	> 100 µM (inactive)	> 100 µM (inactive)	> 100 µM (inactive)	> 100 µM (inactive)	> 100 µM (inactive)	> 100 µM (inactive)	> 100 µM (inactive)	> 100 µM (inactive)	–	> 100 µM (inactive)	> 100 µM (inactive)	> 100 µM (inactive)	> 100 µM (inactive)	> 100 µM (inactive)	> 100 µM (inactive)	> 100 µM (inactive)
CC1(C)C=C(S(=O)(=O)c2ccccc2)Oc2ccccc2O1	30.8 µM (inactive)	41 µM (inactive)	29.5 µM (inactive)	43.6 µM (inactive)	16.3 µM (inactive)	26.2 µM (inactive)	40.9 µM (inactive)	> 100 µM (inactive)	82.8 µM (inactive)	41.7 µM (inactive)	52.4 µM (inactive)	60.3 µM (inactive)	–	6.7 µM (inactive)	45.4 µM (inactive)	38 µM (inactive)	15.7 µM (inactive)	43.5 µM (inactive)	> 100 µM (inactive)	32.9 µM (inactive)
CCC1(O)C=CC(=O)C=C1	24.5 µM (inactive)	31.6 µM (inactive)	36.1 µM (inactive)	15 µM (inactive)	11.6 µM (inactive)	8.77 µM (inactive)	10.3 µM (inactive)	33.1 µM (inactive)	0.0422 µM (active)	23.3 µM (inactive)	31.1 µM (inactive)	38.5 µM (inactive)	–	21.1 µM (inactive)	15.3 µM (inactive)	18.8 µM (inactive)	40.8 µM (inactive)	24 µM (inactive)	17.2 µM (inactive)	32.4 µM (inactive)
COc1cc(/C=C/c2ccncc2)cc(OC)c1OC	30.5 µM (inactive)	> 100 µM (inactive)	> 100 µM (inactive)	> 100 µM (inactive)	72.4 µM (inactive)	> 100 µM (inactive)	32.3 µM (inactive)	38.8 µM (inactive)	> 100 µM (inactive)	> 100 µM (inactive)	–	–	96.2 µM (inactive)	41 µM (inactive)	> 100 µM (inactive)	> 100 µM (inactive)	–	–	–	52.4 µM (inactive)
NC(Cn1ccc(=O)c(O)c1)C(=O)O (centres undefined) [MIMOSINE]	> 100 µM (inactive)	> 100 µM (inactive)	> 100 µM (inactive)	> 100 µM (inactive)	> 100 µM (inactive)	54.8 µM (inactive)	> 100 µM (inactive)	> 100 µM (inactive)	> 100 µM (inactive)	> 100 µM (inactive)	> 100 µM (inactive)	> 100 µM (inactive)	–	> 100 µM (inactive)	> 100 µM (inactive)	> 100 µM (inactive)	> 100 µM (inactive)	> 100 µM (inactive)	> 100 µM (inactive)	> 100 µM (inactive)
